# Data from publication PMC10819888, “Benzimidazole-Based Derivatives as Apoptotic Antiproliferative Agents: Design, Synthesis, Docking, and Mechanistic Studies” (Molecules, 2024).
# Tests used:
# Experiment in all cases: NCI-60 one-dose assay
# Format in all cases: cell-based
# 786-0 = details: Homo sapiens, 786-0 (Renal Cancer), read-out: Cell Inhibition Percent
# Experimental: (§1) The final compounds were submitted to the National Cancer Institute, Bethesda, USA, for screening in vitro for anti-cancer. […] compounds, 4a–j, 5, and 6, were selected according to the Development Therapeutic Program (DTP) protocol. The selected compounds were evaluated for their in vitro cytotoxic activity against a panel of sixty cancer cell lines (NCI-60 cell line panel) derived from six cell lines panel of leukemia, nine cell lines of lung cancer, six cell lines of CNS cancer, seven cell lines of colon cancer, eight cell lines of melanoma, six cell lines of ovarian cancer, eight cell lines of renal cancer, two cell lines of prostate cancer, and eight cell lines of breast cancer, representing the full nine human systems as leukemia, melanoma, and cancers of the lung, colon, brain, breast, ovary, kidney, and prostate.
# (§2) The selected compounds 4a–j, 5, and 6 were tested at a single concentration of 10 µM. The screening results for the selected compounds are illustrated in Table 1.
# (§3) The NCI anti-cancer screening methodology has been described in detail elsewhere (http://www.dtp.nci.nih.gov, accessed on 20 February 2021). Following the Drug Evaluation Branch protocol, National Cancer Institute, Bethesda, USA, a primary anti-cancer assay was performed on approximately 60 human tumor cell line panels derived from nine neoplastic diseases.
# A549/ATCC = details: Homo sapiens, A549/ATCC (Non-Small Cell Lung Cancer), read-out: Cell Inhibition Percent
# Experimental: as §1, §2, §3
# BT-549 = details: Homo sapiens, BT-549 (Breast Cancer), read-out: Cell Inhibition Percent
# Experimental: as §1, §2, §3
# CAKI-1 = details: Homo sapiens, CAKI-1 (Renal Cancer), read-out: Cell Inhibition Percent
# Experimental: as §1, §2, §3
# COLO 205 = details: Homo sapiens, COLO 205 (Colon Cancer), read-out: Cell Inhibition Percent
# Experimental: as §1, §2, §3
# DU-145 = details: Homo sapiens, DU-145 (Prostate Cancer), read-out: Cell Inhibition Percent
# Experimental: as §1, §2, §3
# HCT-15 = details: Homo sapiens, HCT-15 (Colon Cancer), read-out: Cell Inhibition Percent
# Experimental: as §1, §2, §3
# HL-60(TB) = details: Homo sapiens, HL-60(TB) (Leukemia), read-out: Cell Inhibition Percent
# Experimental: as §1, §2, §3
# HOP-92 = details: Homo sapiens, HOP-92 (Non-Small Cell Lung Cancer), read-out: Cell Inhibition Percent
# Experimental: as §1, §2, §3
# K-562 = details: Homo sapiens, K562, K-562 (Leukemia), read-out: Cell Inhibition Percent
# Experimental: as §1, §2, §3
# KM12 = details: Homo sapiens, KM12 (Colon Cancer), read-out: Cell Inhibition Percent
# Experimental: as §1, §2, §3
# M14 = details: Homo sapiens, M14 (Melanoma), read-out: Cell Inhibition Percent
# Experimental: as §1, §2, §3
# MCF7 = details: Homo sapiens, MCF7 (Breast Cancer), read-out: Cell Inhibition Percent
# Experimental: as §1, §2, §3
# MDA-MB 231 = details: Homo sapiens, MDA-MB 231 (Breast Cancer), read-out: Cell Inhibition Percent
# Experimental: as §1, §2, §3
# MOLT-4 = details: Homo sapiens, MOLT-4 (Leukemia), read-out: Cell Inhibition Percent
# Experimental: as §1, §2, §3
# NCI-H23 = details: Homo sapiens, NCI-H23 (Non-Small Cell Lung Cancer), read-out: Cell Inhibition Percent
# Experimental: as §1, §2, §3
# NCI-H322M = details: Homo sapiens, NCI-H322M (Non-Small Cell Lung Cancer), read-out: Cell Inhibition Percent
# Experimental: as §1, §2, §3
# NCI-H460 = details: Homo sapiens, NCI-H460 (Non-Small Cell Lung Cancer), read-out: Cell Inhibition Percent
# Experimental: as §1, §2, §3
# NCI-H522 = details: Homo sapiens, NCI-H522 (Non-Small Cell Lung Cancer), read-out: Cell Inhibition Percent
# Experimental: as §1, §2, §3
# OVCAR-5 = details: Homo sapiens, OVCAR-5 (ovarian cancer), read-out: Cell Inhibition Percent
# Experimental: as §1, §2, §3
# PC-3 = details: Homo sapiens, PC-3 (Prostate Cancer), read-out: Cell Inhibition Percent
# Experimental: as §1, §2, §3
# RXF 393 = details: Homo sapiens, RXF 393 (Renal Cancer), read-out: Cell Inhibition Percent
# Experimental: as §1, §2, §3
# SF-268 = details: Homo sapiens, SF-268 (CNS cancer), read-out: Cell Inhibition Percent
# Experimental: as §1, §2, §3
# SF-295 = details: Homo sapiens, SF-295 (CNS cancer), read-out: Cell Inhibition Percent
# Experimental: as §1, §2, §3
# SF-539 = details: Homo sapiens, SF-539 (CNS cancer), read-out: Cell Inhibition Percent
# Experimental: as §1, §2, §3
# SK-MEL-28 = details: Homo sapiens, SK-MEL-28 (Melanoma), read-out: Cell Inhibition Percent
# Experimental: as §1, §2, §3
# SK-MEL-5 = details: Homo sapiens, SK-MEL-5 (Melanoma), read-out: Cell Inhibition Percent
# Experimental: as §1, §2, §3
# SN12C = details: Homo sapiens, SN12C (Renal Cancer), read-out: Cell Inhibition Percent
# Experimental: as §1, §2, §3
# SW-620 = details: Homo sapiens, SW-620 (Colon Cancer), read-out: Cell Inhibition Percent
# Experimental: as §1, §2, §3
# U251 = details: Homo sapiens, U-251, U251 (CNS cancer), read-out: Cell Inhibition Percent
# Experimental: as §1, §2, §3
# UACC-62 = details: Homo sapiens, UACC-62 (Melanoma), read-out: Cell Inhibition Percent
# Experimental: as §1, §2, §3
Structure (SMILES),inhibition at 10 µM (786-0),inhibition at 10 µM (A549/ATCC),inhibition at 10 µM (BT-549),inhibition at 10 µM (CAKI-1),inhibition at 10 µM (COLO 205),inhibition at 10 µM (DU-145),inhibition at 10 µM (HCT-15),inhibition at 10 µM (HL-60(TB)),inhibition at 10 µM (HOP-92),inhibition at 10 µM (K-562),inhibition at 10 µM (KM12),inhibition at 10 µM (M14),inhibition at 10 µM (MCF7),inhibition at 10 µM (MDA-MB 231),inhibition at 10 µM (MOLT-4),inhibition at 10 µM (NCI-H23),inhibition at 10 µM (NCI-H322M),inhibition at 10 µM (NCI-H460),inhibition at 10 µM (NCI-H522),inhibition at 10 µM (OVCAR-5),other results
"O=C(NN=Cc1ccc(Cl)cc1)c1ccc2[nH]c(-c3ccc(Cl)cc3)nc2c1 [Compound 4e, N′-(4-Chlorobenzylidene)-2-(4-chlorophenyl)-1H-benzimidazole-5-carbohydrazide]",142%,127%,0%,38.8%,124%,69.5%,95.3%,94.2%,71.9%,91.3%,129%,80.3%,120%,90.5%,95.5%,100%,72.3%,134%,36.8%,76.3%,inhibition at 10 µM (PC-3): 125%; inhibition at 10 µM (RXF 393): 81.1%; inhibition at 10 µM (SF-268): 62%; inhibition at 10 µM (SF-295): 149%; inhibition at 10 µM (SF-539): 62.9%; inhibition at 10 µM (SK-MEL-28): 109%; inhibition at 10 µM (SK-MEL-5): 63.8%; inhibition at 10 µM (SN12C): 137%; inhibition at 10 µM (SW-620): 128%; inhibition at 10 µM (U251): 115%; inhibition at 10 µM (UACC-62): 83.2%
"O=C(NN=Cc1ccc(Cl)cc1Cl)c1ccc2[nH]c(-c3ccc(Cl)cc3)nc2c1 [Compound 4f, N′-(2,4-Dichlorobenzylidene)-2-(4-chlorophenyl)-1H-benzimidazole-5-carbohydrazide]",0%,4.7%,0%,9.61%,0%,0%,0%,5.98%,0%,53.7%,1.75%,17.1%,13.4%,11.4%,72.6%,4.26%,0%,1.37%,7.79%,0%,inhibition at 10 µM (PC-3): 7.03%; inhibition at 10 µM (RXF 393): 12.5%; inhibition at 10 µM (SF-268): 3.63%; inhibition at 10 µM (SF-295): 1.19%; inhibition at 10 µM (SF-539): 5.73%; inhibition at 10 µM (SK-MEL-28): 0%; inhibition at 10 µM (SK-MEL-5): 2.92%; inhibition at 10 µM (SN12C): 1.23%; inhibition at 10 µM (SW-620): 4.3%; inhibition at 10 µM (U251): 41%; inhibition at 10 µM (UACC-62): 0%
